{"source": "patent US12497460B2", "about": "“Anti-MSR1 antibodies and methods of use thereof” (REGENERON PHARMACEUTICALS, INC., priority 2018, dated 2025)", "key": {"[1]": {"tested_on": "LPS-induced IL-1β release in differentiated THP-1 cells", "experiment": "LPS-mediated IL-1β release assay", "assay_type": "cell-based, human", "conditions": "for IC50: Homo sapiens", "protocol": "To test the anti-inflammatory properties of anti-MSR1 antibody-steroid conjugates in vitro, a lipopolysaccharide (LPS)-mediated IL-1β release assay was performed. For the assay, THP-1 cells were seeded onto 96 well plates at 40,000 cells/well in media containing RPMI supplemented with 10% FBS and pencillin/streptomycinin and differentiated with 200 nM Phorbol Myristate Acetate (PMA) for 3 days. After the 3-day differentiation period, three-fold serial dilutions of antibody drug conjugates, unconjugated antibodies, or free payloads in fresh media were added to the cells at final concentration ranging from 100 nM to 0.01 nM. Media alone served as a blank control. Subsequently at 24, 48, or 72 hours later, cells were treated with 100 ng/ml LPS (InVivoGen, Cat #tlrl-eklps) for 5 hours. The cell media was then collected, and IL-1β levels were measured using a V-PLEX Proinflammatory Panel 1 human kit (Meso Scale Diagnostics, Cat #15049D-2) as per manufacturer's instructions. Subsequently, the plate was read on a Meso Scale Diagnostics instrument.\nIC50 values were determined from a four-parameter logistic equation over a 10-point response curve (GraphPad Prism). All IC50 values are expressed in M (molar) concentration. The IC50 values and IL-1β amount at the maximum concentration of antibody-steroid conjugates or controls are shown in Table 22 each of the time point tested."}, "[2]": {"tested_on": "Msr1^hu/hu ApoE^−/− mice, peritoneal macrophages", "experiment": "LPS-mediated expression of CD80 on peritoneal macrophages (flow cytometry)", "assay_type": "in vivo, mouse", "conditions": "administered 2 hours before", "protocol": "(§1) Assay protocol for ex vivo LPS-induced responses. In ex vivo LPS challenge experiments, mice were intraperitoneally administered with 10 μL/g of anti-MSR1 antibody-steroid conjugates (H1H21234N-N297Q-LP13), isotype control steroid conjugate (Isotype control-LP13), unconjugated anti-MSR1 antibody (H1H21234N-N297Q) and isotype control antibodies at different time points (24, 48, and 72 hours) prior to harvesting the peritoneal cells from peritoneal cavity. […] All mice were sacrificed at 0 hour time point and peritoneal cells were obtained from the peritoneum by the peritoneal lavage technique. In brief, 5 mL of ice cold 1×PBS (ThermoFisher Scientific, Cat #20012027) containing 2% BSA (Gibco, Cat #A9576) and 0.6 mM EDTA (ThermoFisher Scientific, Cat #15575020) were injected into the peritoneal cavity using 27 g needle. […] The resuspended cells were plated at 500,000 cells per well in 24-well tissues culture plates and incubated with or without 10 ng/mL of LPS for 18 hours.\n(§2) Assay protocol for in vivo LPS-induced responses. In in vivo LPS challenge experiments, mice were intraperitoneally administered with 10 μL/g of decreasing concentrations of anti-MSR1 antibody-steroid conjugates (H1H21234N-N297Q-LP13) and isotype control steroid conjugate (Isotype control-N297Q-LP13) at 24 hours prior to in vivo LPS challenge. PBS and free steroid P4 were intraperitoneally injected at 2 hours prior to in vivo LPS challenge. At 0 hour time point, three large drops of blood (volume ˜ 100 μL) were collected from the maxillary vein of each mouse into serum gel separator tubes. The tubes were centrifuged at 2200-2500 rpm for 15 minutes, and the serum was collected into 96-well plates for subsequent measurement of cytokines. At 18 hours post in vivo LPS challenge, the peritoneal cells were obtained from periotenal cavity as aforementioned for subsequent flow cytometry analysis.\nAnalysis of expression of activation markers on peritoneal macrophages after LPS ex vivo challenge. Upon collection of supernatants for cytokine analysis, the plates were washed twice with 1×PBS w/o Ca^++/Mg2^++ (ThermoFisher Scientific, Cat #14190144), and the adherent peritoneal cells were harvested by addition of 250-300 μL of cold Macrophage Detachment Solution DXF (PromoCell, Cat #C41330) for 40 minutes. The detached cells were collected into 50-mL tubes and centrifuged at 350×g for 15 minutes. After two washes with 1×PBS supplemented with 2 mM EDTA, the cells were resuspended in Cell Staining Buffer (Biolegend, #420201) and plated at 1×10^6 cells per well in a 96-well V bottom plate. […] Data were analyzed using FlowJo (Tree Star)."}, "[3]": {"tested_on": "Msr1^hu/hu ApoE^−/− mice, peritoneal cells", "experiment": "Ex vivo LPS-induced cytokine production by peritoneal cells after in vivo dosing", "parameters": "species or system mouse", "protocol": "(§3) To examine the anti-inflammatory effect of the anti-MSR1 antibody-steroid conjugates, an ex-vivo and in vivo LPS-induced inflammatory immune response model was performed.\n(§4) Generation of a mouse inflammatory immune response model. Mice homozygously expressing human MSR1 extracellular domain in place of the mouse MSR1 extracellular domain and with a homozygous deletion of the ApoE gene were utilized (resulting mice referred to as Msr1^hu/hu ApoE^−/− mice).\nas §1\nMeasurement of cytokines at 18 hours post-LPS ex vivo challenge. Supernatants were collected into 96-well round bottom tissue culture plates at 18 hours post-ex vivo LPS challenge and stored at […] until further analysis. Cytokine concentrations in the supernatants were measured using a Proinflammatory Panel 1 (mouse) multiplex immunoassay kit (MesoScale Diagnostics, Cat #K15048D) according to manufacturer's instructions. Electrochemiluminescence was read on a Meso Scale Diagnostics SECTOR® instrument. Data analysis was performed using GraphPad Prism™ software. Statistical significance within the groups was determined by one-way Anova with Turkey's multiple comparison post-test (*p<0.01; **p<0.001; ***p<0.0001)."}, "Msr1^hu/hu ApoE^−/− mice": {"tested_on": "Msr1^hu/hu ApoE^−/− mice", "experiment": "In vivo LPS-induced cytokine production in serum", "parameters": "species or system mouse", "conditions": "1.48 mg/kg, 2 hours before in vivo LPS", "protocol": "as §3, §4, §2"}, "LXR (THP1/LXR-Luc cells)": {"tested_on": "LXR (THP1/LXR-Luc cells)", "experiment": "LXR-luciferase reporter bioassay (Example 31)", "assay_type": "cell-based, human", "conditions": "signal to noise, ratio of RLU of standard one over standard eight; 48 hours", "from_the_text": "Generation of assay cell line. To test the efficacy of anti-MSR1 antibody-LXR conjugates in vitro, a cell-based LXR responsive luciferase reporter assay was developed. To generate the assay cell line, a LXR regulated luciferase reporter gene [Cignal Lenti LXR Reporter (luc) kit (Qiagen, Cat #CLS-001 L)] was transduced into THP1 cells, and cells were selected for two weeks in puromycin. The lentivirus expresses the firefly luciferase gene under the control of a minimal CMV promoter and tandem repeats of the LXR transcriptional response element. The resulting cell line is referred to as THP1/LXR-Luc cells.\nAssay protocol. THP1/LXR-Luc cells were seeded onto 96 well plates at 40,000 cells/well in media containing RPMI supplemented with 10% FBS and pencillin/streptomycin and subsequently differentiated with 200 nM Phorbol Myristate Acetate (PMA) for 3 days. After the 3-day differentiation period, three-fold serial dilutions of antibody drug conjugates, unconjugated antibodies, or free payloads in fresh media were added to the cells at final concentration ranging from 100 nM to 0.01 nM. Media alone served as a blank control. Forty-eight hours later, luciferase activity was determined after the addition of One-Glo™ reagent (Promega, Cat #E6130) to each well. Relative light units (RLUs) were measured on a Victor luminometer (PerkinElmer) and EC50 values were determined using a four-parameter logistic equation over a 10-point dose response curve (GraphPad Prism). The signal to noise (S/N) was determined by calculating the ratio of RLU of standard one over RLU of standard eight for each of the unconjugated anti-MSR1 antibodies or free payloads. “LP #” represents a linker-payload for which the corresponding structures are provided elsewhere herein, and “P #” represents a payload for which the corresponding structures are provided elsewhere herein."}, "[4]": {"conditions": "administered 2 hours before peritoneal cell isolation, ex vivo LPS"}}, "note": "Where a name gives a salt, the structure may show the parent alone. Read-outs that look alike come from different tables or passages of the source. Marks after values point to notes of the source that are not given here."}
{"smiles": "CCCC1O[C@@H]2C[C@H]3[C@@H]4C[C@H](F)C5=CC(=O)C=C[C@]5(C)[C@@]4(F)[C@@H](O)C[C@]3(C)[C@]2(C(=O)CN)O1", "note": "(mixture of isomers) [P4, (1S,2S,4R,6R,8S,9S,11S,12R,13S,19S)-8-(2-Aminoacetyl)-12,19-difluoro-11-hydroxy-9,13-dimethyl-6-propyl-5,7-dioxapentacyclo[10.8.0.0^2,9.0^4,8.0^13,18]icosa-14,17-dien-16-one]", "values": [{"measurement": "IL1beta released at max concentration tested", "setting": "[1]; 24 hour treatment before LPS", "result": 43.39, "unit": "pg/mL"}, {"measurement": "IL1beta released at max concentration tested", "setting": "[1]; 48 hour treatment before LPS", "result": 9.3, "unit": "pg/mL"}, {"measurement": "IL1beta released at max concentration tested", "setting": "[1]; 72 hour treatment before LPS", "result": 12.95, "unit": "pg/mL"}, {"measurement": "IC50", "setting": "[1]; THP-1, 24-hour time point, 100 ng/ml LPS for 5 hours, read-out: IC50, inhibition of LPS-induced IL-1β secretion", "result": 0.849, "unit": "nM"}, {"measurement": "IC50", "setting": "[1]; THP-1, 48-hour time point, 100 ng/ml LPS for 5 hours, read-out: IC50, inhibition of LPS-induced IL-1β secretion", "result": 1.02, "unit": "nM"}, {"measurement": "IC50", "setting": "[1]; THP-1, 72-hour time point, 100 ng/ml LPS for 5 hours, read-out: IC50, inhibition of LPS-induced IL-1β secretion", "result": 1.2, "unit": "nM"}, {"measurement": "IC50", "setting": "[1]; THP-1, 24 hour treatment before LPS, read-out: EC50 (the source's name)", "result": 0.849, "unit": "nM"}, {"measurement": "IC50", "setting": "[1]; THP-1, 48 hour treatment before LPS, read-out: EC50 (the source's name)", "result": 1.02, "unit": "nM"}, {"measurement": "IC50", "setting": "[1]; THP-1, 72 hour treatment before LPS, read-out: EC50 (the source's name)", "result": 1.2, "unit": "nM"}, {"measurement": "LPS-mediated expression of CD80, pMΦ Cells", "setting": "[2]; hMSR1+F4/80+CD11b+ peritoneal macrophages", "result": "54.7 ± 3.8 % relative to PBS/LPS-treatment"}, {"measurement": "LPS-mediated expression of CD80, non-pMΦ Cells", "setting": "[2]; hMSR1−F4/80−CD11b− cells", "result": "93.02 ± 4.4 % relative to PBS/LPS-treatment"}, {"measurement": "Cytokine IL-6", "setting": "[3]; [4]", "result": "12.98 ± 5.8**** ng/mL"}, {"measurement": "Cytokine KC-GRO", "setting": "[3]; [4]", "result": "2.6 ± 1.3** ng/mL"}, {"measurement": "Cytokine TNF-α", "setting": "[3]; [4]", "result": "0.43 ± 0.06** ng/mL"}, {"measurement": "effect on ex vivo LPS-induced cytokine production (IL-6, KC-GRO, TNF-α) by peritoneal cells", "setting": "[3]; i.p. dosing 24, 48, 72 hours (conjugates, antibodies) or 2 hours (free steroids) before cell harvest, 10 ng/mL LPS 18 hours", "result": "Comparable inhibition of LPS-induced immune responses"}, {"measurement": "Cytokine IL-6 in serum", "setting": "Msr1^hu/hu ApoE^−/− mice", "result": "3.51 ± 0.7", "unit": "ng/mL"}, {"measurement": "Cytokine KC-GRO in serum", "setting": "Msr1^hu/hu ApoE^−/− mice", "result": "4.1 ± 1.5", "unit": "ng/mL"}, {"measurement": "Cytokine TNF-α in serum", "setting": "Msr1^hu/hu ApoE^−/− mice", "result": "0.09 ± 0.02", "unit": "ng/mL"}]}
{"smiles": "C[C@]1(C(=O)NC(=O)[C@@]2(C)CCC[C@]3(C)c4cc(NC(=O)[C@@H](N)CO)ccc4CC[C@@H]23)CCC[C@]2(C)c3cc(O)ccc3CC[C@@H]12", "note": "[P5, (1S,4aS,10aR)-6-((S)-2-Amino-3-hydroxypropanamido)-N-((1S,4aS,10aR)-6-hydroxy-1,4a-dimethyl-1,2,3,4,4a,9,10,10a-octahydrophenanthrene-1-carbonyl)-1,4a-dimethyl-1,2,3,4,4a,9,10,10a-octahydrophenanthrene-1-carboxamide]", "values": [{"measurement": "S/N", "setting": "LXR (THP1/LXR-Luc cells)", "result": 5.7}]}
{"smiles": "C[C@]1(C(=O)NC(=O)[C@@]2(C)CCC[C@]3(C)c4cc(NC(=O)[C@@H](N)CCC(=O)O)ccc4CC[C@@H]23)CCC[C@]2(C)c3cc(O)ccc3CC[C@@H]12", "note": "[P6, (4S)-4-Amino-4-{[(4bS,8S,8aR)-8-{[(1S,4aS,10aR)-6-hydroxy-1,4a-dimethyl-1,2,3,4,4a,9,10,10a-octahydrophenanthrene-1-carbonyl]carbamoyl}-4b,8-dimethyl-4b,5,6,7,8,8a,9,10-octahydrophenanthren-3-yl]carbamoyl}butanoic acid; trifluoroacetic acid salt]", "values": [{"measurement": "S/N", "setting": "LXR (THP1/LXR-Luc cells)", "result": 8.3}]}
{"smiles": "C[C@]1(C(=O)NC(=O)[C@@]2(C)CCC[C@]3(C)c4cc(NC(=O)[C@@H](N)CCCCN)ccc4CC[C@@H]23)CCC[C@]2(C)c3cc(O)ccc3CC[C@@H]12", "note": "[P7, (1S,4aS,10aR)-N-[(1S,4aS,10aR)-6-Hydroxy-1,4a-dimethyl-1,2,3,4,4a,9,10,10a-octahydrophenanthrene-1-carbonyl]-6-[(2S)-2,6-diaminohexanamido]-1,4a-dimethyl-1,2,3,4,4a,9,10,10a-octahydrophenanthrene-1-carboxamide; trifluoroacetic acid salt]", "values": [{"measurement": "S/N", "setting": "LXR (THP1/LXR-Luc cells)", "result": 8.9}]}
